Test results reported in patent publication US20250313860A1, “EXPRESSION OF EXOGENOUS PROTEINS IN DONOR PLATELETS TREATED WITH LIPID NANOPARTICLES” (THE UNIVERSITY OF BRITISH COLUMBIA, priority 2022, published 2025).

What was measured:
human platelets = test: Platelet responsiveness to agonists ADP and thrombin (CD62P flow cytometry); format: cell-based; details: transfected and control untreated platelets, FIG. 3A
Procedure: (§1) Platelets untreated or treated with CL4H6 POPC LNP were activated after 2 h with 0.1 U mL-1 thrombin from human plasma (MilliporeSigma Canada Ltd, Oakville, ON) or 10 μM Chrono-Par® ADP reagent (Chrono-Log, Havertown, PA) in Tyrode's-HEPES buffer pH 7.4 (134 mM NaCl, 2.9 mM KCl, 0.34 mM NaH2PO4, 10 mM HEPES, 5 mM D-glucose). After 4 h LNP treatment, platelets were collected for flow cytometry and the remaining sample was centrifuged at 250×g for 10 min, with the pellet and supernatant fractions collected for luciferase assay.
Platelet responsiveness to agonists ADP or thrombin was measured by flow cytometry staining using PE-conjugated mouse anti-human CD62P labeling, as described in the Materials and Methods.

[1] = system: platelets transfected with mRNA-LNP; test: Intracellular and extracellular NanoLuc after agonist activation of transfected platelets; format: cell-based, human; details: after agonist stimulation of transfected platelets; for intracellular NanoLuc level (cell pellet): FIG. 4D; for extracellular NanoLuc level (supernatant): FIG. 4E
Procedure: as §1
Platelets were transfected with mRNA-LNP encoding NanoLuc, followed by activation with agonists ADP or thrombin. Intracellular and extracellular protein was separated by centrifugation, and enzymatic activity assays were used to measure exogenous protein levels in both fractions as described in the Materials and Methods.

[2] = system: platelets transfected with mRNA-LNP; test: Cycloheximide treatment of mRNA-LNP transfected platelets; format: cell-based, human
Text: Platelets were transfected with mRNA encoding nanoluciferase (NanoLuc) encapsulated in LNP formulation using ALC0315 and DOPC immediately preceding treatment with cycloheximide, followed by enzymatic assays of nanoluciferase activity, and activation by flow cytometry using PE-conjugated mouse anti-human CD62P labeling, as described in the Materials and Methods.

Row | Molecule | increase of CD62P levels by agonist (human platelets) | intracellular NanoLuc level (cell pellet) [1] | extracellular NanoLuc level (supernatant) [1] | exogenous protein synthesis in transfected platelets ([2]; LNP with ALC0315 and DOPC, FIG. 5A) | mRNA-LNP uptake in transfected platelets ([2]; presence or absence of cycloheximide, FIG. 5B)
1 | Nc1ncnc2c1ncn2[C@@H]1O[C@H](COP(=O)(O)OP(=O)(O)O)[C@@H](O)[C@H]1O [ADP] | mildly | unchanged | unchanged |  | 
2 | C[C@@H]1C[C@@H]([C@H](O)CC2CC(=O)NC(=O)C2)C(=O)[C@@H](C)C1 [cycloheximide] |  |  |  | inhibited | no statistically significant effect
3 | thrombin | substantially | decreased | decreased |  | 
